The text below walks through data of US4764506A, “N^6 -(benzothien-3-yl)ethyl adenosine; N^6 -(benzothien-3-yl)ethyl adenosine, S-oxide; and N^6 -(benzothien-3-yl)ethyl S,S-dioxide adenosine” (Warner-Lambert Company, priority 1986, dated 1988).

Series [1] in a line: Mouse Activity and Screen Test Procedure (MAST): inhibition of spontaneous locomotion (actophotometer) and overall dose rating. The format is in vivo, mouse (Swiss-Webster, male). As to conditions: PO.
Series [2] deals with T1, adenosine A2 receptor (Rattus norvegicus, UniProt P30543).
T1 construct: Brains were thawed and then kept on ice while the striata were dissected out; tissue Pel-Freez (Rogers, Ark.); host or cells: rat striatum, membranes (mixed sex Sprague-Dawley)
Briefly: Adenosine Receptor Binding--A2 Receptor Affinity (RBA2), [3H]NECA displacement, rat striatal membranes. Set-up: species or system rat (Sprague-Dawley). The settings on record: 4 nM [3H]NECA, 50 nM N6-cyclopentyladenosine, rat striatum, 25° C., read-out: RBA-2. As to the method: Brains from 200-500 g mixed sex Sprague-Dawley rats were purchased from Pel-Freez (Rogers, Ark.). Fresh brains from male Long-Evans hooded rats (Blue Spruce Farms, Altamont, N.Y.) gave essentially identical results. Brains were thawed and then kept on ice while the striata were dissected out. Striata were disrupted in 10 vol of ice-cold 50 mM Tris.HCl (pH 7.7 at 25° C., pH 8.26 at 5° C.) (Tris) for 30 seconds in a Polytron PT-10 (Brinkmann) at setting 5. The suspension was centrifuged at 50,000 xg for ten minutes, the supernatant discarded, the pellet resuspended in 10 vol ice-cold Tris as above, recentrifuged, resuspended at 1 g/5 ml, and stored in plastic vials at -70° C. (stable for at least six months). When needed, tissue was thawed at room temperature, disrupted in a Polytron, and kept on ice until used.
All incubations were for 60 minutes at 25° C. in 12×75 mm glass tubes containing 1 ml Tris with 5 mg original tissue weight of rat weight of rat striatal membranes, 4 nM [^3 H]-N-ethyl adenosine-5'-carboxamide ([^3 H]NECA), 50 nM N^6 -cyclopentyladenosine (to eliminate A1 receptor binding), 10 mM MgCl2, 0.1 units/ml of adenosine deaminase and 1% dimethylsulfoxide. N^6 -Cyclopentyladenosine was dissolved at 10 mM in 0.02N HCl and diluted in Tris. Stock solutions and dilutions of N^6 -cyclopentyladenosine could be stored at -20° C. for several months. Test compounds were dissolved at 10 mM in dimethylsulfoxide on the same day as the experiment, and diluted in dimethylsulfoxide to 100× the final incubation concentration. Control incubations received an equal volume (10 μl) of dimethylsulfoxide; the resulting concentration of dimethylsulfoxide had no effect on binding. [^3 H]NECA was diluted to 40 nM in Tris. The membrane suspension (5 mg/0.79 ml) contained sufficient MgCl2 and adenosine deaminase to give 10 mM and 0.1 units/ml, respectively, final concentration in the incubation. […]
Incubations were terminated by filtration through 2.4 cm GF/B filters under reduced pressure. […] Filters were put in scintillation vials, 8 ml of Formula 947 scintillation fluid added, and the vials left overnight, shaken, and counted in a liquid scintillation counter at 40% efficiency.
Nonspecific binding was defined as binding in the presence of 100 μM N^6 -cyclopentyladenosine, and specific binding was defined as total binding minus nonspecific binding. The IC50 was calculated by weighted nonlinear least squares curve-fitting to the mass-action equation. […]
Weighting factors were calculated under the assumption that the standard deviation was proportional to the predicted value of Y. Nonspecific binding was treated as a very large (infinite) concentration of drug in the computer analysis.

Series [3] is described as follows: Mouse Activity and Screen Test Procedure (MAST): screen test (mice falling off inverted screen). The format is in vivo, mouse (Swiss-Webster, male). As to conditions: PO.
For series [4], the target named is T2, adenosine A1 receptor (Rattus norvegicus, UniProt P25099).
T2 construct: Whole brain minus cerebellum and brainstem from male Long Evans rats; from tissue; host or cells: rat whole brain minus cerebellum and brainstem, membranes (male Long Evans)
T2 sequence (P25099 1-326): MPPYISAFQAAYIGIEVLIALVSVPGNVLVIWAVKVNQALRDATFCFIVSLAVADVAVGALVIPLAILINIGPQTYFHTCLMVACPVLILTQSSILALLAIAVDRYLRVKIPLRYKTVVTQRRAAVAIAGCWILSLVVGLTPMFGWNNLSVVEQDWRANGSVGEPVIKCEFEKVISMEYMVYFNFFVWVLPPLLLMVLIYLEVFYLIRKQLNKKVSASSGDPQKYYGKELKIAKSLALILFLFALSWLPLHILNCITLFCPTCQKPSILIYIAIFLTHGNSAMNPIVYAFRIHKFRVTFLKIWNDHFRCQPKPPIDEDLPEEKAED
Description: Adenosine Receptor Binding--A1 Receptor Affinity (RBA1), [3H]-CHA displacement, rat whole brain membranes. Also on record: species or system rat (Long Evans). As to conditions: 1.0 nM [3H]-CHA, pH 7.7, 25° C., read-out: RBA-1. As to the method:
Whole brain minus cerebellum and brainstem from male Long Evans rats (150-200 g) was homogenized in 30 volumes of ice-cold 0.05 M Tris-HCl buffer pH 7.7 using a Brinkman Polytron PT-10, (setting number 6 for 20 seconds) and centrifuged for ten minutes at 20,000×g (Sorvall RC-2), 4° C. The supernatant was discarded, and the pellet was resuspended and centrifuged as before. The pellet was resuspended in 20 ml Tris-HCl buffer containing two International Units/ml of adenosine deaminase (Sigma type III from calf intestinal mucosa), incubated at 37° C. for 30 minutes, then subsequently at 0° C. for ten minutes. The homogenate was again centrifuged, and the final pellet was resuspended in ice-cold 0.05 M Tris-HCl buffer pH 7.7 to a concentration of 20 mg/ml original wet tissue weight and used immediately.
Tissue homogenate (10 mg/ml) was incubated in 0.05 M Tris-HCl buffer pH 7.7 containing 1.0 nM [^3 H]-N^6 -cyclohexyladenosine (^3 H]-CHA) with or without test agents in triplicate for one hour at 25° C. Incubation volume was 2 ml. Unbound [^3 H]-CHA was separated by rapid filtration under reduced pressure through Whatman glass fiber (GF/B) filters. The filters were rinsed three times with 5 ml of ice cold 0.05 M Tris-HCl buffer pH 7.7. The radio-labeled ligand retained on the filter was measured by liquid scintillation spectrophotometry after shaking the filters for one hour or longer on a mechanical shaker in 10 ml of Beckman Ready-Solv HP scintillation cocktail.
Nonspecific binding was defined as the binding which occurred in the presence of 1 mM theophylline. The concentration of test agent which inhibited 50% of the specific binding (IC50) was determined by nonlinear computer curve fit. The Scatchard plot was calculated by linear regression of the line obtained by plotting the amount of radioligand bound [formula] Since the amount of radioligand bound was a small fraction of the total amount added, free radioligand was defined as the concentration (nM) of radioligand added to the incubation mixture. The Hill coefficient was calculated by linear regression of the line obtained by plotting the log of the bound radioligand vs the log of the [formula] The maximal number of binding sites (Bmax) was calculated from the Scatchard plot.

Series [5] can be described thus: Mouse Activity and Screen Test Procedure (MAST): inhibition of spontaneous locomotion (actophotometer) and overall dose rating. As to conditions: IP. The format is in vivo, mouse (Swiss-Webster, male). An excerpt:
(§1) The compounds of the invention are new chemical substances which are useful as pharmaceutical agents for the treatment of psychoses. The antipsychotic activity of representative compounds of the invention was established by the Mouse Activity and Screen Test Procedure (MAST) described below.
(§2) Nine unfasted Swiss-Webster male mice weighing 20-30 g are equally divided into three groups for each drug dose to be tested. That is, data for each dose level was generated by three separate groups of three mice each.
(§3) A minimum of three dose levels (10, 30, and 100 mg/kg) are tested for each drug. Treatments are administered intraperitoneally one hour prior to testing. All dosages are calculated as parent compound and given in volumes of 10 ml/kg. Compounds are dissolved or suspended in 0.2% Methocel. Control animals are injected with Methocel.
(§4) Testing: A two part testing procedure is started one hour postinjection. First, the screen test (ST) is performed (see Pharmac. Biochem. Behav. 6, 351-353, 1977). Briefly this test consists of placing mice on individual wire screens which are then rotated 180 degrees at the start of a 60 second observation period. The number of mice falling off the inverted screen is recorded.
Immediately following the screen test, the final phase of testing is initiated by placing each group of three mice in one actophotometer (Life Sciences, 22, 1067-1076, 1978). The actophotometer consists of a cylindrical chamber whose center is occupied by another cylinder which contains the illumination for six photocells located on the perimeter of the chamber. Six light-beam interruptions equal one count. Locomotor activity is recorded by computer at ten minute intervals for 60 minutes.
(§5) Data: The data obtained from the screen test are expressed as percent of mice falling off the screen. Data derived from locomotor activity of drug treated mice are compared to the activity of vehicle treated animals and are expressed as percent inhibition of spontaneous locomotion. All percentages reported for inhibition of locomotion (LI) are based upon data accumulated for one hour. Both phases of testing are graded: A=60-100%; C=31-59%; and N=0-30%. An overall dose rating is obtained by the following criteria:
(§6) LAD refers to the lowest dose at which an A rating is achieved. […] Utilizing this procedure, an overall dose rating of A was obtained for the noted compound at the indicated dose. The compounds are identified in the Examples.

Series [6] is described as follows: Mouse Activity and Screen Test Procedure (MAST): screen test (mice falling off inverted screen). The format is in vivo, mouse (Swiss-Webster, male). As to conditions: IP.
From the text: as §1, §2, §3, §4, §5, §6

T1 sequence (P30543 whole entry): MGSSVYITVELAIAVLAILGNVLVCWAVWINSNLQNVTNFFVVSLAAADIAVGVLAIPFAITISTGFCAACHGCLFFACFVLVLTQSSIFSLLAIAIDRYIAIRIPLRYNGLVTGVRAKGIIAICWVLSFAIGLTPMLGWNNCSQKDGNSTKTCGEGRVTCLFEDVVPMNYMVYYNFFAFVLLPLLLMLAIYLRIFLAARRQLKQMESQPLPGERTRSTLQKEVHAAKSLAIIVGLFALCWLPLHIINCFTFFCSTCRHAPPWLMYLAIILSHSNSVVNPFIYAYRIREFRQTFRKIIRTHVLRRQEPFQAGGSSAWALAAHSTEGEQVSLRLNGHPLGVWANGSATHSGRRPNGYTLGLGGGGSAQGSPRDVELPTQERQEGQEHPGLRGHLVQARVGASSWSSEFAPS

In the case of `COc1ccc2c(CCNc3ncnc4c3ncn4[C@@H]3O[C@H](CO)[C@@H](O)[C@H]3O)csc2c1` [Example 1, N-[2-(6-methoxybenzo[b]thien-3-yl)ethyl]adenosine], the “Inhibition of Mouse Locomotion Activity” value in series [1] (3 mg/kg) stood at 12%; in series [1] (10 mg/kg), 42%; in series [1] (30 mg/kg), 84%; in series [5] (3 mg/kg), 23%; in series [5] (10 mg/kg), 48%; in series [5] (30 mg/kg) it was 92%. Further, the IC50 came out at 0.343 µM in series [2] and 0.0077 µM in series [4]. The “Screen Test Failure” value in series [3] (3 mg/kg) is given as 17%; in series [3] (10 mg/kg), 0%; in series [3] (30 mg/kg) it was 44%; in series [6] (3 mg/kg) it was 0%; in series [6] (10 mg/kg) it was 11%; in series [6] (30 mg/kg) it was 11%.
In the case of `OC[C@H]1O[C@@H](n2cnc3c(NCCc4csc5ccccc45)ncnc32)[C@H](O)[C@@H]1O` [Example 2, N-[2-(benzo[b]thien-3-yl)ethyl]adenosine], the IC50 stood at 0.303 µM in series [2] and 0.012 µM in series [4]. Moreover, the entries for the “Inhibition of Mouse Locomotion Activity” value in series [5] (3 mg/kg), in series [5] (10 mg/kg) and in series [5] (30 mg/kg) were 21%, 30% and 63%, respectively. Besides, the “Screen Test Failure” value turned out to be 0% in series [6] (3 mg/kg), 11% in series [6] (10 mg/kg) and 0% in series [6] (30 mg/kg).
Consider `OC[C@H]1O[C@@H](n2cnc3c(NCCc4csc5ccc(Cl)cc45)ncnc32)[C@H](O)[C@@H]1O` [Example 3, N-[2-(5-chlorobenzo[b]thien-3-yl)ethyl]adenosine], for which the IC50 came to 0.549 µM in series [2] and 0.0045 µM in series [4]. Also, the “Inhibition of Mouse Locomotion Activity” value in series [5] (3 mg/kg) came out at 27%; in series [5] (10 mg/kg) it was 54%; in series [5] (30 mg/kg) it was 86%. Besides, the “Screen Test Failure” value in series [6] (3 mg/kg), in series [6] (10 mg/kg) and in series [6] (30 mg/kg) was 0% each time.
Consider `Cc1ccc2scc(CCNc3ncnc4c3ncn4[C@@H]3O[C@H](CO)[C@@H](O)[C@H]3O)c2c1` [Example 4, N-[2-(5-methylbenzo[b]thien-3-yl)ethyl]adenosine], for which the IC50 stood at 0.413 µM in series [2] and 0.0043 µM in series [4]. Also, the “Inhibition of Mouse Locomotion Activity” value in series [5] (3 mg/kg) worked out at 48%; in series [5] (10 mg/kg), 63%; in series [5] (30 mg/kg), 89%. Besides, the “Screen Test Failure” value in series [6] (3 mg/kg), in series [6] (10 mg/kg) and in series [6] (30 mg/kg) was 0% each time.
